From paper PMC10303271, “Synthesis and Receptor Binding Studies of α5 GABAAR Selective Novel Imidazodiazepines Targeted for Psychiatric and Cognitive Disorders” (Molecules, 2023) come the findings set out here.

Structures are written as SMILES. Like-named read-outs stand apart in the source and are kept apart here.

The target in one assay is T1, M3D (Homo sapiens, UniProt P20309, A239G/Y149C).
T1 construct: purchased NIMH Psychoactive Drug Screening Program (PDSP)
Briefly: PDSP primary binding M3D. The note with it: primary binding, 10,000 nM; last figure of the line = mean of the 4 before it; read-out: M3D, PDSP raw data, mean. Here is the method:
(§1) To determine if any off-target receptor-binding effects are present, all the novel ligands were sent to the National Institute of Mental Health (NIMH), Psychoactive Drug Screening Program (PDSP). The ligands were screened over a panel of 47 receptors, ion channels, and transporters to determine any other possible interactions with […]. The hERG-binding was also determined. […] No binding of the test compounds to calcium channels was observed. […] It is necessary to screen the compounds for hERG-binding during the early process of drug discovery. The unintentional binding of many drugs to hERG can cause blockade of hERG K+ channels in the heart, which can cause many side effects including cardiac arrhythmias and sudden death. […] All of the α5 imidazodiazepines were tested for hERG-binding.
(§2) The NIMH PDSP assay protocol book [https://kidbdev.med.unc.edu/databases/PDSP%20Protocols%20II%202013-03-28.pdf accessed on 23 April 2023]. describes the protocols for primary and secondary radio-ligand binding assays. These assays were carried out in a final volume of 125 µL per well in the appropriate binding buffer.
(§3) The binding of a ligand to a receptor, ion channel, or transporter was determined in the […] of 10 µM of the appropriate reference compound. […] Plates were incubated in the dark for 90 min at rt, and the reactions were stopped by vacuum filtration onto 0.3% polyethyleneimine (PEI) soaked 96-well filter mats using a 96-well Filtermateharvester. This was followed by three washes with cold PBS buffer. Radioactivity was then counted on a Microbeta counter. Nonlinear regression was used to analyze the data with N = 6 replicates.

A further assay concerns the target T2, 5-HT7A (Homo sapiens, UniProt P34969).
T2 construct: purchased NIMH Psychoactive Drug Screening Program (PDSP)
Briefly: PDSP primary binding 5-HT7A. As to conditions: 1.5 h; primary binding, 10,000 nM; last figure of the line = mean of the 4 before it; read-out: 5-HT7A, PDSP raw data, mean. Here is the method:
as §1, §2, §3

The target in assay [1] is kappa opioid receptors (KOR) (Homo sapiens, UniProt P41145). Briefly: PDSP radioligand binding at KOR. The note with it: for inhibition at 10 µM: 1.5 h.
Sequence of kappa opioid receptors (KOR) (P41145 whole entry): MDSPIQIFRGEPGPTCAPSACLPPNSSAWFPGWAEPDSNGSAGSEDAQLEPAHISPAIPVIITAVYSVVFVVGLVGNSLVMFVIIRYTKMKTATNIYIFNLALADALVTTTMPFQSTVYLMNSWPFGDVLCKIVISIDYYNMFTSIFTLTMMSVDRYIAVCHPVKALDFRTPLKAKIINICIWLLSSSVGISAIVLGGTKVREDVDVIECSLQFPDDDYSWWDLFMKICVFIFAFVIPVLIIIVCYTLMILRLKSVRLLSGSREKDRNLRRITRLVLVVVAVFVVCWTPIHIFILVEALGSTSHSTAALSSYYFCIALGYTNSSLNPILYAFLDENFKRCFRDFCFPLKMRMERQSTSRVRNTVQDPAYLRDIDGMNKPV
Description: Opioid receptors are a family of inhibitory G-coupled protein receptors where opioids act as the ligand. The kappa opioid receptors (KOR), µ and δ opioid receptors (MOR and DOR), and nociception opioid receptor (NOP) fall under the family of opioids receptors. It has been reported that oxadiazole imidazodiazepines can mediate analgesic and anti-inflammatory properties mediated also by the κ opioid receptor (KOR). The binding at KOR is usually silent. The affinities of the test compounds for KOR, DOR, and MOR were determined using radioligand binding assays at a screening concentration of 10,000 nM in collaboration with the National Institute of Mental Health’s Psychoactive Drug Screening Program (PDSP), as mentioned before. Concentration-dependent experiments were conducted to determine Ki values for the compounds that exceeded more than 50% radioligand displacement in primary binding assays.
as §2, §3

Another assay addresses T3, M3 (Homo sapiens, UniProt P20309).
T3 construct: purchased NIMH Psychoactive Drug Screening Program (PDSP)
The experiment in a line: PDSP primary binding M3. As to conditions: primary binding, 10,000 nM; last figure of the line = mean of the 4 before it; read-out: M3, PDSP raw data, mean. The method, then: as §1, §2, §3

A further assay deals with T4, 5-HT2C (Homo sapiens, UniProt P28335).
T4 construct: purchased NIMH Psychoactive Drug Screening Program (PDSP)
T4 sequence (P28335 33-458): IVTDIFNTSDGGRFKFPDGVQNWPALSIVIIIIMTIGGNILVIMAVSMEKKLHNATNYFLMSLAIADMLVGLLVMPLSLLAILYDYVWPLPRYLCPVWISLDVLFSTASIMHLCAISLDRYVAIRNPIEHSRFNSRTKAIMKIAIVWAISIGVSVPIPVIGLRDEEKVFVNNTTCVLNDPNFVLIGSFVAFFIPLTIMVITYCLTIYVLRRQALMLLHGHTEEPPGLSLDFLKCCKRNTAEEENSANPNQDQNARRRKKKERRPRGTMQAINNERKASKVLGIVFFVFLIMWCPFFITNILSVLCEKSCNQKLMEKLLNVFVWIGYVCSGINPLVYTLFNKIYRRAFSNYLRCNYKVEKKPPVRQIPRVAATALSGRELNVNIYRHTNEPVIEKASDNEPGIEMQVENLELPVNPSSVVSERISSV
The experiment in a line: PDSP primary binding 5-HT2C. The note with it: 1.5 h; primary binding, 10,000 nM; last figure of the line = mean of the 4 before it; read-out: 5-HT2C, PDSP raw data, mean. The method, then: as §1, §2, §3

A further assay deals with T5, D2 (Homo sapiens, UniProt P14416).
T5 construct: purchased NIMH Psychoactive Drug Screening Program (PDSP)
T5 sequence (P14416 whole entry): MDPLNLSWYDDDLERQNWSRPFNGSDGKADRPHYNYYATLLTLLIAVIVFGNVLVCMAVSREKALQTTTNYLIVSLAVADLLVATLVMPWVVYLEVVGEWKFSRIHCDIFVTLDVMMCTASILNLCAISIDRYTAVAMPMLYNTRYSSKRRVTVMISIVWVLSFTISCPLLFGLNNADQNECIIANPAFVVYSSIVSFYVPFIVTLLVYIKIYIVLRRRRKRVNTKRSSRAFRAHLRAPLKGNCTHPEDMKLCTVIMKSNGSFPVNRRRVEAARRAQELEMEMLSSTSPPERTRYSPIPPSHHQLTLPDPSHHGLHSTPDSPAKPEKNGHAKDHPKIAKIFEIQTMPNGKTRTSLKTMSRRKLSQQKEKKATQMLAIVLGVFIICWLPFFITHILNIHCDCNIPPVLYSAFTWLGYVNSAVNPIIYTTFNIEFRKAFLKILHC
The experiment in a line: PDSP primary binding D2. As to conditions: 1.5 h; primary binding, 10,000 nM; last figure of the line = mean of the 4 before it; read-out: D2, PDSP raw data, mean. The method, then:
as §1, §2, §3

In another assay the target is T6, H1 (Homo sapiens, UniProt P35367).
T6 construct: purchased NIMH Psychoactive Drug Screening Program (PDSP)
T6 sequence (P35367 whole entry): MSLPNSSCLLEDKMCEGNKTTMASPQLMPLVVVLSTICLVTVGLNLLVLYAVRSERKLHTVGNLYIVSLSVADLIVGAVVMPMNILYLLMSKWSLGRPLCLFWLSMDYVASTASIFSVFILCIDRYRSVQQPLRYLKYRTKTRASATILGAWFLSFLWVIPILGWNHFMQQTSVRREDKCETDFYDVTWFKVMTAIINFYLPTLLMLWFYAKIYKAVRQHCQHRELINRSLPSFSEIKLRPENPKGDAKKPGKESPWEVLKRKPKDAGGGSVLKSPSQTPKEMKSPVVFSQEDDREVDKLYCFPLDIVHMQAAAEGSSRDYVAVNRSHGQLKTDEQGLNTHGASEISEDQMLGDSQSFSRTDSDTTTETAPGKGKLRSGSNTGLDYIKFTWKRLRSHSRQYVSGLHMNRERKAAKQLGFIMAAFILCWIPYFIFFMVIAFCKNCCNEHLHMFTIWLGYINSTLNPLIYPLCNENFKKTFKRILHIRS
The experiment in a line: PDSP primary binding H1. The note with it: primary binding, 10,000 nM; last figure of the line = mean of the 4 before it; read-out: H1, PDSP raw data, mean. The method, then: as §1, §2, §3

The target of the next assay is T7, 5-HT1E (Homo sapiens, UniProt P28566).
T7 construct: purchased NIMH Psychoactive Drug Screening Program (PDSP)
T7 sequence (P28566 whole entry): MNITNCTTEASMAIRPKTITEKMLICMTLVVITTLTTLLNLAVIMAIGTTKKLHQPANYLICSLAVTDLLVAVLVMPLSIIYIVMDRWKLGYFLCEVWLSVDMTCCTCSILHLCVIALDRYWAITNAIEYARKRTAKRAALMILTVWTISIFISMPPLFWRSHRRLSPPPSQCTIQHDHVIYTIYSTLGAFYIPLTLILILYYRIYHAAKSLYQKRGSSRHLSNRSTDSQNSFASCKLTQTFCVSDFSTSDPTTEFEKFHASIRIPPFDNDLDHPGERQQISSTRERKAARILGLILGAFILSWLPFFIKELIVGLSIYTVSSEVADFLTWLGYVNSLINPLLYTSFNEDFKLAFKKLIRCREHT
The experiment in a line: PDSP primary binding 5-HT1E. The note with it: primary binding, 10,000 nM; last figure of the line = mean of the 4 before it. Here is the method:
as §1, §2, §3

Another assay concerns the target T8, Alpha3Beta2 (Rattus norvegicus, UniProt P04757+P12390).
T8 construct: purchased NIMH Psychoactive Drug Screening Program (PDSP)
The experiment in a line: PDSP primary binding Alpha3Beta2. As to conditions: primary binding, 10,000 nM; last figure of the line = mean of the 4 before it; read-out: Alpha3Beta2, PDSP raw data, mean. Here is the method: as §1, §2, §3

In another assay the target is T9, M2 (Homo sapiens, UniProt P08172).
T9 construct: purchased NIMH Psychoactive Drug Screening Program (PDSP)
T9 sequence (P08172 1-466): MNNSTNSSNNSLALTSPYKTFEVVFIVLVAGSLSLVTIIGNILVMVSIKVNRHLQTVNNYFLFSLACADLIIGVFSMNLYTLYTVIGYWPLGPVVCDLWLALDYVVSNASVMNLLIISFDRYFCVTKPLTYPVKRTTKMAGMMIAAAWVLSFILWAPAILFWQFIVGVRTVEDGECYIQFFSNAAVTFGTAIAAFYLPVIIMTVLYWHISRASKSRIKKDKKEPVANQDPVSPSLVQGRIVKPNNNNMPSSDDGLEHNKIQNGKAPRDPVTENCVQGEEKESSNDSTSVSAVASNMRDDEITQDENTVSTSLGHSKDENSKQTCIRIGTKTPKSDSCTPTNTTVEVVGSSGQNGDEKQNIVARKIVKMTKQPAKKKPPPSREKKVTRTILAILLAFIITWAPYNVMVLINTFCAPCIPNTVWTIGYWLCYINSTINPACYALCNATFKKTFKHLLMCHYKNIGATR
The experiment in a line: PDSP primary binding M2. As to conditions: primary binding, 10,000 nM; last figure of the line = mean of the 4 before it; read-out: M2, PDSP raw data, mean. The method, then: as §1, §2, §3

Where [2] appears, read: at 10,000 nM, N = 5, [3H]-U69593 0.83 nM, read-out: Primary Binding %KOR.
[3] abbreviates: primary binding, 10,000 nM, last figure of the line = mean of the 4 before it, read-out: KOR, PDSP raw data, mean.

T1 sequence (P20309 whole entry Y149C/A239G): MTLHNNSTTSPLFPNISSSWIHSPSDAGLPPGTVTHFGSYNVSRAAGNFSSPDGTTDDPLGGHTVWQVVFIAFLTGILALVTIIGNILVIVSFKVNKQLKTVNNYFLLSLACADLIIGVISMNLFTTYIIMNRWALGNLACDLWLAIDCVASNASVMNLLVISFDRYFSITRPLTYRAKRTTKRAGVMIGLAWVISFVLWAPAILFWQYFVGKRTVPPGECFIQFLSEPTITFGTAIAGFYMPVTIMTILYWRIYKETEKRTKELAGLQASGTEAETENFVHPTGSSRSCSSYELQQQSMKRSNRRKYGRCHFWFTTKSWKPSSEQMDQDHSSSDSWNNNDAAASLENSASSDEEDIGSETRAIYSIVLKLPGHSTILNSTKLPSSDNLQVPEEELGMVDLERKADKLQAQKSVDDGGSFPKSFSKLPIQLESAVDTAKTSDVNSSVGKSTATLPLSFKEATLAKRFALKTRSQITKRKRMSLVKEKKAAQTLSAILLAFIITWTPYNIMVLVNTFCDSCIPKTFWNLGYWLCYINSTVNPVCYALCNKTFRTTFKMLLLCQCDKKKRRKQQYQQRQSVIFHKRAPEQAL
T3 sequence (P20309 whole entry): as the sequence (P20309 whole entry Y149C/A239G) above, with C149Y, G239A counted along it
T2 sequence (P34969 1-445 isoform P34969-2): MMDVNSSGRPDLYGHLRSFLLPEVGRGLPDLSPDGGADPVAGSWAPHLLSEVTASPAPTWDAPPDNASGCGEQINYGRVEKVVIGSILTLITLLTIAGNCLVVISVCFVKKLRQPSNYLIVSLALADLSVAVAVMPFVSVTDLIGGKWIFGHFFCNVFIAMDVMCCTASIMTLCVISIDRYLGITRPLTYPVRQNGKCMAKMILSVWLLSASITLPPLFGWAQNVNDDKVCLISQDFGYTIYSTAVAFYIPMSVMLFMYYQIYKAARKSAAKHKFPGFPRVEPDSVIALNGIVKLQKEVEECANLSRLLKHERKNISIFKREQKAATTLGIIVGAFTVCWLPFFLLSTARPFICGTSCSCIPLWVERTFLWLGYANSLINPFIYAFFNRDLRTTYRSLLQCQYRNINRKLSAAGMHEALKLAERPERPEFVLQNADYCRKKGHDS
T8 sequence (P04757 26-499): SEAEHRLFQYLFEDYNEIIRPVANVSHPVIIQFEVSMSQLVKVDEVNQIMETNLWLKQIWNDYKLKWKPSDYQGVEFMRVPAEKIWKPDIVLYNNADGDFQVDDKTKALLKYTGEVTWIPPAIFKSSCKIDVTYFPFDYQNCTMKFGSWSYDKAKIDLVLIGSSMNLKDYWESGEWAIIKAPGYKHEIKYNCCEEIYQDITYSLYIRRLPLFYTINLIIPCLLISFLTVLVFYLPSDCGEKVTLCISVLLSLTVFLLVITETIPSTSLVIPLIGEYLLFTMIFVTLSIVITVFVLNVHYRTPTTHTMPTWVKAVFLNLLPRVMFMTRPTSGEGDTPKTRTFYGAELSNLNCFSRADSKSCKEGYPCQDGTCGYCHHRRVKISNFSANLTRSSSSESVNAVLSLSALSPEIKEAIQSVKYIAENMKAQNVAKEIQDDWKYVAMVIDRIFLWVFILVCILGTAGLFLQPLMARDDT
T8 sequence (P12390 25-500): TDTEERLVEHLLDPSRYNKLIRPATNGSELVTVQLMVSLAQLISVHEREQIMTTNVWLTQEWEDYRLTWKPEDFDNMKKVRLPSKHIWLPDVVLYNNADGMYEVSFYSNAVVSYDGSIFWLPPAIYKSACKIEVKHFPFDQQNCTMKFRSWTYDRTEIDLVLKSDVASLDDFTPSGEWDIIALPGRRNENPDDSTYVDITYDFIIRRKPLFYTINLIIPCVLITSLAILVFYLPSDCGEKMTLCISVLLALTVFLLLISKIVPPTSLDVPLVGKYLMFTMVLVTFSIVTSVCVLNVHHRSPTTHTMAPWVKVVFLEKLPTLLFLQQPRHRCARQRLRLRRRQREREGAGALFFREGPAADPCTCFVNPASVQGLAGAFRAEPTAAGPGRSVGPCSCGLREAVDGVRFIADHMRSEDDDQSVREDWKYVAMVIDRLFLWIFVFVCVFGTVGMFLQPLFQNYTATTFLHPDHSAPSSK

`CCc1noc(-c2ncn3c2[C@@H](C)N=C(c2ccccc2F)c2cc(Cl)ccc2-3)n1` [Compound 36, (R)-5-(8-Chloro-6-(2′-fluorophenyl)-4-methyl-4H-benzo[f]imidazo[1,5-a][1,4]diazepin-3-yl)-3-ethyl-1,2,4-oxadiazole]: the inhibition at 10 µM is -2.01% on M3D; 1.53% on 5-HT7A; 96.4 ± 3% in assay [1] (setting [2]); 96.4% in [1] (setting [3]); -3.98% at M3; 13.9% at 5-HT2C. Besides, the inhibition at 10 µM was 3.17% on D2, 7.7% on H1, 6.01% at Alpha3Beta2 and -3.62% at M2. The same compound came in with an inhibitory constant (Ki) in assay [1] of 104 ± 7.58 nM. In addition, the “5-HT1E, PDSP raw data, mean” value on 5-HT1E came to 5.28%.
`C[C@H]1N=C(c2ccccc2F)c2cc(-c3ccccc3)ccc2-n2cnc(C(=O)N(C)C)c21` [Compound 5, (R)-6-(2′-Fluorophenyl)-N,N,4-trimethyl-8-phenyl-4H-benzo[f]imidazo[1,5-a][1,4]diazepine-3-carboxamide]: the inhibition at 10 µM at M3D is 4.84%; at 5-HT7A it was 4.31%; in assay [1] (setting [2]) it was 53.6 ± 7.24%; in assay [1] (setting [3]) it was 53.6%; at M3, 3.03%; at 5-HT2C, 18%. The inhibition at 10 µM on D2 is 0.27%; at H1 it was -10.4%; at Alpha3Beta2 it was 2.14%; on M2, 15.4%. The inhibition constant Ki in assay [1] (secondary screening, N = 2, read-out: KOR (Ki)) was determined as 2140 ± 311 nM. Further, the “5-HT1E, PDSP raw data, mean” value on 5-HT1E turned out to be 34.07%.
For `C[C@H]1N=C(c2ccccc2F)c2cc(Cl)ccc2-n2cnc(-c3nc(C4CC4)no3)c21` [Compound 38, (R)-5-(8-Chloro-6-(2′-fluorophenyl)-4-methyl-4H-benzo[f]imidazo[1,5-a][1,4]diazepin-3-yl)-3-cyclopropyl-1,2,4-oxadiazole], the inhibition at 10 µM worked out at 6.92% at M3D; 11.9% at 5-HT7A; 98.9 ± 1.6% in assay [1] (setting [2]); 98.9% in assay [1] (setting [3]); 19.3% at M3; 7.18% on 5-HT2C. Moreover, the inhibition at 10 µM at D2 is 21.8%; at H1, 58.4%; at Alpha3Beta2 it was 6.96%; on M2 it was -9.65%. Moreover, in assay [1], the affinity, expressed as Ki, was 82.2 ± 2.43 nM. For the same compound, at 5-HT1E, the “5-HT1E, PDSP raw data, mean” value is recorded as -22.45%.
Consider `C#Cc1ccc2c(c1)C(c1ccccc1F)=N[C@H](C)c1c(C(=S)N(C)C)ncn1-2` [Compound 33, (R)-8-Ethynyl-6-(2′-fluorophenyl)-N,N,4-trimethyl-4H-benzo[f]imidazo[1,5-a][1,4]diazepine-3-carbothioamide], for which the inhibition at 10 µM worked out at 4.84% at M3D; 4.31% at 5-HT7A; 53.6 ± 7.24% in [1] (setting [2]); 53.6% in [1] (setting [3]); 3.03% at M3; 18% on 5-HT2C. Besides, the inhibition at 10 µM was 0.27% at D2, -10.4% at H1, 2.14% at Alpha3Beta2 and 15.4% on M2. In assay [1], this compound showed a Ki of 400 ± 82 nM. On 5-HT1E, the “5-HT1E, PDSP raw data, mean” value is listed as 34.07%.
Turning to `C#Cc1ccc2c(c1)C(c1ccccc1Cl)=N[C@H](C)c1c(C(=O)NC)ncn1-2` [Compound 21, (R)-6-(2′-Chlorophenyl)-8-ethynyl-N,4-dimethyl-4H-benzo[f]imidazo[1,5-a][1,4]diazepine-3-carboxamide], the inhibition at 10 µM on M3D is 0.48%; on 5-HT7A, -12.3%; in assay [1] (setting [2]), 69.6 ± 6.01%; in [1] (setting [3]), 69.6%; on M3, -12.9%; on 5-HT2C, -14.2%. For the same compound, the inhibition at 10 µM on D2 was -4.19%; at H1 it was -9.7%; on Alpha3Beta2 it was 3.21%; on M2 it was 0.22%. In [1], this compound gave a Ki of 660 ± 159 nM. Moreover, the “5-HT1E, PDSP raw data, mean” value at 5-HT1E was 7.75%.
`CCc1noc(-c2ncn3c2[C@@H](C)N=C(c2ccccc2F)c2cc(C4CC4)ccc2-3)n1` [Compound 46, (R)-5-(8-Cyclopropyl-6-(2′-fluorophenyl)-4-methyl-4H-benzo[f]imidazo[1,5-a][1,4]diazepin-3-yl)-3-ethyl-1,2,4-oxadiazole]: the inhibition at 10 µM worked out at 9.97% on M3D; 4.98% at 5-HT7A; 91.3% in assay [1] (setting [3]); 8.95% at M3; 3.53% on 5-HT2C; 4.73% at D2. In addition, the values for the inhibition at 10 µM at H1, at Alpha3Beta2 and at M2 were 33.7%, 5.55% and 5.73%, respectively. Moreover, the “5-HT1E, PDSP raw data, mean” value on 5-HT1E is -18.76%.
